Patent US20130252930A1 (BIOMARIN PHARMACEUTICAL INC., priority 2010, published 2013)
Where two headings read alike, the source gives them in different places.

Assays:
[1] = Rat liver microsome stability assay (Biological Example 8a); settings: liver microsomes, pH 7.4
Description: Each test compound (1.5 μM, 30 μL) was incubated with rat (BD Gentest, Cat No. 452501) or human (BD Gentest, Cat No. 452161) liver microsomes (0.75 mg/mL, 0.1 M potassium phosphate buffer, 1.0 mM EDTA, pH 7.4) in 96 well plates. The reaction was started with addition of excess NADPH (5 mg/mL, 15 μL in 0.1 M potassium phosphate buffer, 1.0 mM EDTA, pH 7.4), the total volume is 45 μL (compound final concentration was 1 μM). The incubations were terminated at time zero and at 5, 15, 30, and 60 minutes by addition of 135 μL/excess ACN containing internal standard (1S). After quenching, the reaction mixtures was centrifuged (Eppendorf Centrifuge 5810R) at 3220×g for 10 min (4° C.). 50 μL of the supernatant was transferred from each well into a 96-well sample plate containing 50 μL of ultra-pure water (Millipore) for LC-MS/MS analysis. The half-life T1/2=0.693/K (K is the rate constant from a plot of log [concentration] vs. incubation time) was calculated.

CYP17 (H295R cells) = target: T1, CYP17 (H295R cells) (Homo sapiens, UniProt P05093); test: CYP17 cellular assay (IC50), testosterone in H295R cells (Biological Example 7); format: cell-based; settings: H295R cells
T1 construct: endogenous in cells; host or cells: H295R cells
T1 sequence (P05093 1-508): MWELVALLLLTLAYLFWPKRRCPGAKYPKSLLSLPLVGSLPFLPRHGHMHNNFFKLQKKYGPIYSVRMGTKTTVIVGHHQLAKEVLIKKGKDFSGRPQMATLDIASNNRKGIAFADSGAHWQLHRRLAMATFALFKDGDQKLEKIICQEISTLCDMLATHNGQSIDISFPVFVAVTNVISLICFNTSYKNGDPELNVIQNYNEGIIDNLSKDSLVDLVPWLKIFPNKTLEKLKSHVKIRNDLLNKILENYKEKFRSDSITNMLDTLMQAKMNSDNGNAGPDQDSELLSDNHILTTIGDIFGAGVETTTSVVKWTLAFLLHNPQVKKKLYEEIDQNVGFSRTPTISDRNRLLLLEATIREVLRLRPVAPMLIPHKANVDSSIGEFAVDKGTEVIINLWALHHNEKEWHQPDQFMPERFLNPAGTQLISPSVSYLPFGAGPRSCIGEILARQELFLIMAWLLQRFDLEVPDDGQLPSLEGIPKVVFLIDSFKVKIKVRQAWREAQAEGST
How it was run: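 H295R cells cultured 24 h, then exposed to compound at 100, 10, 1, 0.1 nM final in serum-free DMEM/F-12 with ITS+ and 0.1% methanol for 24 h at 37 °C. Medium testosterone measured by ELISA and plotted against compound concentration.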

[2] = target: T2, CYP17 (human testicular microsome) (Homo sapiens, UniProt P05093); test: CYP17 enzymatic assay (IC50) (Biological Example 4); format: biochemical; settings: human testicular microsome
T2 construct: using microsomal fraction from human testis (Celsis Cat #S00110) as the enzyme source; tissue Celsis S00110; host or cells: human testis microsomal fraction
T2 sequence (P05093 1-508): T1 sequence (P05093 1-508)

[3] = Human liver microsome stability assay (Biological Example 8b); settings: liver microsomes, pH 7.4
Description: The reaction was started with addition of excess NADPH (5 mg/mL, 15 μL in 0.1 M potassium phosphate buffer, 1.0 mM EDTA, pH 7.4), the total volume is 45 μL (compound final concentration was 1 μM). […] 50 μL of the supernatant was transferred from each well into a 96-well sample plate containing 50 μL of ultra-pure water (Millipore) for LC-MS/MS analysis.

[4] = target: T2, CYP17 (human testicular microsome); test: CYP17 enzymatic assay (% inhibition at 10 nM), version 1 (Biological Example 5); format: biochemical; settings: 10 nM compound, DHEA by ELISA, read-out: Biological Example No. 5: CYP17 percent inhibition at 10 nM (version 1)
[5] = target: T2, CYP17 (human testicular microsome); test: CYP17 enzymatic assay (% inhibition at 1 nM) (Biological Example 12); format: biochemical; settings: compound at 1 nM, read-out: CYP17 enzymatic assay % inhibition at 1 nM (Biological Example No. 12)
[6] = testosterone by ELISA, 24 hours, read-out: Biological Example No. 7: CYP17 cellular assay IC50
[7] = DHEA by ELISA, read-out: Biological Example No. 4: CYP17 enzymatic assay IC50

SMILES | half-life at 1 μM [1] [min] | IC50 (CYP17 (H295R cells); [6]) [nM] | IC50 [2, 7] [nM] | half-life at 1 μM [3] [min] | inhibition at 0.01 µM [4] [%] | IC50 (CYP17 (H295R cells); testosterone, read-out: CYP17 cellular assay IC50 (Biological Example No. 7)) [nM] | IC50 ([2]; read-out: CYP17 enzymatic assay IC50 (Biological Example No. 4)) [nM] | inhibition at 0.001 µM [5] [%]
C[C@]12CC[C@H]3[C@@H](CC=C4C[C@@H](O)CC[C@@]43C)C1=CC=C2c1cccnc1 [Compound 79, (3S,10R,13S)-10,13-dimethyl-17-(pyridin-3-yl)-2,3,4,7,8,9,10,11,12,13-decahydro-1H-cyclopenta[a]phenanthren-3-ol] | 10 to 60 | < 15 | < 11 | 1 to 50 | 50 to 80 |  |  | 
C[C@]12CC(O)C[C@@H]1CC[C@@H]1[C@@H]2CC[C@]2(C)C(n3ccnc3)=CC[C@@H]12 (stereo partly drawn) [Compound 109, (3aS,5aS)-6-(1H-imidazol-1-yl)-3a,5a-dimethyl-1,2,3,3a,3b,4,5,5a,8,8a,8b,9,10,10a-tetradecahydrodicyclopenta[a,f]naphthalen-2-ol] | 10 to 60 | < 15 | < 11 |  | > 80 |  |  | 
CC(=O)NC1CC[C@@]2(C)C(=CCC3C2CC[C@]2(C)C(n4ccnc4)=CCC32)C1 (stereo partly drawn) [Compound 237, N-((10R,13S)-17-(1H-imidazol-1-yl)-10,13-dimethyl-2,3,4,7,8,9,10,11,12,13,14,15-dodecahydro-1H-cyclopenta[a]phenanthren-3-yl)acetamide] |  |  |  | > 50 |  | < 15 | < 11 | > 50
